Assay results from ChEMBL document CHEMBL5338752, “Carbamate JNK3 Inhibitors Show Promise as Effective Treatments for Alzheimer's Disease: In Vivo Studies on Mouse Models” (J Med Chem, 2023).
Calls of active or inactive are those of the source. No cut-off for these calls is given here.

Columns and labels:
[1] = target: Mitogen-activated protein kinase 14 (Homo sapiens) (UniProt Q16539); assay: Inhibition of p38alpha (unknown origin) at 1.0 uM preincubated for 20 mins followed by 33P-ATP addition and measured after 2 hrs by P81 filter binding method relative to control; conditions: time 140.0 min
Mus musculus [2] = assay: Anti-alzheimer activity against triple transgenic mouse alzheimer disease model assessed as latency time at 60 mg/kg, po administered daily for 2.2 months and measured after 122 to 123 days by passive avoidance test (reference value: 31.3+/-6.9 sec); type: functional; conditions: time 122-123 day
Mus musculus [3] = assay: Anti-alzheimer activity against APP/PS1 dE9 double transgenic mouse model assessed as escape latency time at 60 mg/kg, po administered daily for 2 months and measured after 60 days by Passive avoidance test (reference value: 28.6+/-4.3 sec); type: functional; conditions: time 60 day
[4] = Apparent permeability of the compound across basolateral side to apical side in human Caco-2 cells; type: ADME, cell-based
[5] = target: T1, Mitogen-activated protein kinase 9 (Homo sapiens, UniProt P45984); assay: Inhibition of JNK2 (unknown origin) at 1.0 uM preincubated for 20 mins followed by 33P-ATP addition and measured after 2 hrs by P81 filter binding method relative to control; conditions: time 140.0 min
Target sequence in this assay (P45984 whole entry, looked up): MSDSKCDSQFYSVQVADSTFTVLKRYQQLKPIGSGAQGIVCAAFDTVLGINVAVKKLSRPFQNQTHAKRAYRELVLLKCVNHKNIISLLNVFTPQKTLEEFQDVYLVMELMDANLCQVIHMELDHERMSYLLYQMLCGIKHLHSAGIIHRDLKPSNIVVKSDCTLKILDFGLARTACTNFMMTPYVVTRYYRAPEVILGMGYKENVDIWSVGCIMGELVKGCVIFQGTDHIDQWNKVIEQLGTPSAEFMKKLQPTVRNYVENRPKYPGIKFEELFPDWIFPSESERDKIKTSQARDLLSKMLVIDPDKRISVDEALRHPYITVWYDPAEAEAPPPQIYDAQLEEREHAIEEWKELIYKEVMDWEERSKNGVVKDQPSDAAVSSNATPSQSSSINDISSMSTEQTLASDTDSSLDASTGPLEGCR

Mus musculus [6] = assay: Anti-alzheimer activity against triple transgenic mouse alzheimer disease model assessed as time spent in target zone at 60 mg/kg, po administered daily for 2.2 months and measured after 137 days by Morris water maze test (reference value: 4.48+/-1.63 sec); type: functional; conditions: time 137 day
[7] = Effective permeability of compound by […] method; type: ADME; conditions: read-out: Peff
Mus musculus [8] = assay: Anti-alzheimer activity against triple transgenic mouse alzheimer disease model assessed as escape latency time at 30 mg/kg, po measured upto 5 days by Morris water maze test (reference value: 58.62+/-1.15 sec); type: functional; conditions: time <= 5 day
Neuron [9] = assay: Inhibition of apoptosis in rat cortex neuron cells assessed as prevention of A-beta (1 to 42) induced cleaved PARP formation at 10 to 20 uM measured after 24 hrs by Western blot analysis; type: functional, cell-based; conditions: dose 10-20 µM
Neuron [10] = assay: Inhibition of apoptosis in rat cortex neuron cells assessed as prevention of A-beta (1 to 42) induced cleaved caspase-3 formation at 10 to 20 uM measured after 24 hrs by Western blot analysis; type: functional, cell-based; conditions: dose 10-20 µM
Neuron [11] = assay: Neuroprotective activity against rat neuron cells assessed as inhibition of Abeta(1-42)-induced cytotoxicity by measuring increase in cell viability at 20 uM incubated for 48 hrs by MTT assay relative to control; type: functional
Mus musculus [12] = assay: Anti-alzheimer activity against APP/PS1 dE9 double transgenic mouse model assessed as escape latency time at 30 mg/kg, po administered daily for 2 months and measured after 60 days by Passive avoidance test (reference value: 28.6+/-4.3 sec); type: functional; conditions: time 60 day
[13] = target: Mitogen-activated protein kinase 10 (Rattus norvegicus) (UniProt P49187); assay: Inhibition of A-beta (1 to 42) induced JNK3 activation in rat cortex neuron cells assessed as reduction in c-Jun phosphorylation levels at 10 to 20 uM incubated for 24 hrs in presence of A-beta (1 to 42) by Western blot analysis; type: cell-based; conditions: dose 10-20 µM
Mus musculus [14] = assay: Anti-alzheimer activity against triple transgenic mouse alzheimer disease model assessed as reduction in tau phosphorylation level at S202 residue in hippocampal tissue at 30 to 60 mg/kg by Western blot analysis; type: functional, organism-based; conditions: dose 30-60 mg/kg
Mus musculus [15] = assay: Anti-alzheimer activity against triple transgenic mouse alzheimer disease model assessed as latency time at 30 mg/kg, po administered daily for 2.2 months and measured after 122 to 123 days by passive avoidance test (reference value: 31.3+/-6.9 sec); type: functional; conditions: time 122-123 day
Mus musculus [16] = assay: Anti-alzheimer activity against triple transgenic mouse alzheimer disease model assessed as path length at 60 mg/kg, po measured upto 5 days by Morris water maze test (reference value: 608.85+/-39.27 cm); type: functional; conditions: time <= 5 day
[17] = target: Mitogen-activated protein kinase 8 (Homo sapiens, UniProt P45983); assay: Inhibition of JNK1 (unknown origin) using ATF2 as substrate incubated for 40 mins in presence of [gamma33P]ATP by scintillation counting analysis
Mus musculus [18] = assay: Anti-alzheimer activity against triple transgenic mouse alzheimer disease model assessed as reduction in tau phosphorylation level at T181 residue in hippocampal tissue at 30 to 60 mg/kg by Western blot analysis; type: functional, organism-based; conditions: dose 30-60 mg/kg
Mus musculus [19] = assay: Anti-alzheimer activity against APP/PS1 dE9 double transgenic mouse model assessed as spontaneous alteration at 60 mg/kg, po administered daily for 2 months and measured after 57 days by Y-maze test (reference value: 40.75+/-2.25%); type: functional; conditions: time 57 day
Mus musculus [20] = assay: Anti-alzheimer activity against APP/PS1 dE9 double transgenic mouse model assessed as time spent in target zone at 30 mg/kg, po administered daily for 2 months and measured after 74 days by Morris water maze test (reference value: 6.76+/-3.20 sec); type: functional; conditions: time 74 day
[21] = Efflux ratio of apparent permeability across basolateral to apical side to apical to basolateral side in human Caco-2 cells; type: ADME, cell-based
[22] = target: T2, Mitogen-activated protein kinase 10 (Homo sapiens, UniProt P53779); assay: Inhibition of JNK3 (unknown origin) using ATF2 as substrate incubated for 40 mins in presence of [gamma33P]ATP by scintillation counting analysis
Neuron [23] = assay: Inhibition of anisomycin induced JNK activation in rat cortex neuron cells assessed as fold reduction in Jun phosphorylation levels at 10 to 20 uM preincubated for 90 mins followed by anisomycin addition and measured after 40 mins by Western blot analysis; type: cell-based; conditions: dose 10-20 µM, time 130.0 min
Mus musculus [24] = assay: Anti-alzheimer activity against APP/PS1 dE9 double transgenic mouse model assessed as spontaneous alteration at 30 mg/kg, po administered daily for 2 months and measured after 57 days by Y-maze test (reference value: 40.75+/-2.25%); type: functional; conditions: time 57 day
[25] = target: T2, Mitogen-activated protein kinase 10; assay: Inhibition of JNK3 (unknown origin) at 1.0 uM preincubated for 20 mins followed by 33P-ATP addition and measured after 2 hrs by P81 filter binding method relative to control; conditions: time 140.0 min
Neuron [26] = assay: Neuroprotective activity against rat neuron cells assessed as inhibition of Abeta(1-42)-induced cytotoxicity by measuring increase in cell viability at 20 uM incubated for 24 hrs by MTT assay relative to control; type: functional
Mus musculus [27] = assay: Anti-alzheimer activity against triple transgenic mouse alzheimer disease model assessed as escape latency time at 60 mg/kg, po measured upto 5 days by Morris water maze test (reference value: 58.62+/-1.15 sec); type: functional; conditions: time <= 5 day
Mus musculus [28] = assay: Anti-alzheimer activity against APP/PS1 dE9 double transgenic mouse model assessed as time spent in platform quadrant at 60 mg/kg, po administered daily for 2 months and measured after 74 days by Morris water maze test (reference value: 10.50+/-4.15 sec); type: functional; conditions: time 74 day
[29] = target: T1, Mitogen-activated protein kinase 9; assay: Inhibition of JNK2 (unknown origin) using ATF2 as substrate incubated for 40 mins in presence of [gamma33P]ATP by scintillation counting analysis
Target sequence in this assay (P45984 whole entry): as the sequence (P45984 whole entry, looked up) above

[30] = target: Mitogen-activated protein kinase 10 (Rattus norvegicus) (UniProt P49187); assay: Inhibition of anisomycin induced JNK3 activation in rat cortex neuron cells assessed as reduction in Jun phosphorylation levels at 10 to 20 uM preincubated for 90 mins followed by anisomycin addition and measured after 40 mins by Western blot analysis; type: cell-based; conditions: dose 10-20 µM, time 130.0 min

T2 sequence (P53779 whole entry): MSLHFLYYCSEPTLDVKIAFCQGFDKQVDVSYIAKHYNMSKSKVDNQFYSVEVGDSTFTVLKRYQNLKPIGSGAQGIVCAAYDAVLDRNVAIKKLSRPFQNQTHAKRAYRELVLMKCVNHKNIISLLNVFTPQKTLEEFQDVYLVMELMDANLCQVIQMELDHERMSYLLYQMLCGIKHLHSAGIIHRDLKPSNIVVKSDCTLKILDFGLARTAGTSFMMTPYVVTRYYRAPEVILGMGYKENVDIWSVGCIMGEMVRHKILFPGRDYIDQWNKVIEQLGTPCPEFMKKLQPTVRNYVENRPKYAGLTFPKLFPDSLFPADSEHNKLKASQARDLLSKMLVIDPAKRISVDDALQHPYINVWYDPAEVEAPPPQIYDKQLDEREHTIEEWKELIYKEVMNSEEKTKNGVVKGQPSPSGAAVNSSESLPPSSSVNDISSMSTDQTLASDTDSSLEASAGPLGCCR
Mitogen-activated protein kinase 10 (Rattus norvegicus), sequence (P49187 whole entry): as the sequence (P53779 whole entry) above, with Q27H, Y32S, I33V, A34V counted along it
Mitogen-activated protein kinase 14 (Homo sapiens), sequence (Q16539 whole entry): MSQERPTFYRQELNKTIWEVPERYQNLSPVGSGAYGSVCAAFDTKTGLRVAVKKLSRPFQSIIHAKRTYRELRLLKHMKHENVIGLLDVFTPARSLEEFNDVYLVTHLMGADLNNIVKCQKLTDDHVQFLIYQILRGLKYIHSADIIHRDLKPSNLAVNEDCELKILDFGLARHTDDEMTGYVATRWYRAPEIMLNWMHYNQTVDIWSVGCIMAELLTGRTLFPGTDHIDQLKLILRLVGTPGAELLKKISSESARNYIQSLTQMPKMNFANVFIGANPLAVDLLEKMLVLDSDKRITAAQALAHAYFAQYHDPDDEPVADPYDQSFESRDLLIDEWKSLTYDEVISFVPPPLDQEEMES
Mitogen-activated protein kinase 8, sequence (P45983 whole entry): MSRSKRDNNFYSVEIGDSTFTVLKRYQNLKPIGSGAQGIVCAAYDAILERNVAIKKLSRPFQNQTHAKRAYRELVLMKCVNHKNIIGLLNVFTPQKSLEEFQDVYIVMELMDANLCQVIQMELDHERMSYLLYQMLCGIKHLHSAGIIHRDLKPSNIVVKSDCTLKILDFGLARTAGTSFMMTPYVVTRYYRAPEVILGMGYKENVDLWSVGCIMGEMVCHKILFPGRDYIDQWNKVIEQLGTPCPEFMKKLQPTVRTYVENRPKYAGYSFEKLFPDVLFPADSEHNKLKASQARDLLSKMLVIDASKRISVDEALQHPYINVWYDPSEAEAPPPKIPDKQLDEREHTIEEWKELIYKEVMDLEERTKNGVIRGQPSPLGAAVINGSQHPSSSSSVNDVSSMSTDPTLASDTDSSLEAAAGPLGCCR

CNC(=O)Oc1cc(F)c2nc(-c3ccc4ccccc4c3)n(-c3ccnc(N[C@H]4CCCN(C(=O)C5CC5)C4)n3)c2c1
inhibition [1]: 20%
Time (Mus musculus [2]): 64.4 s
Time (Mus musculus [3]): 46.5 s
Papp B→A [4]: 25.2 ×10⁻⁶ cm/s
inhibition [5]: 20%
Time (Mus musculus [6]): 16.28 s
Papp [7]: 55.8 ×10⁻⁶ cm/s
Time (Mus musculus [8]): 26.61 s
inhibition (Neuron [9]): Active
inhibition (Neuron [10]): Active
Activity (Neuron [11]): 28.4%
Time (Mus musculus [12]): 44.2 s
inhibition [13]: Active
Activity (Mus musculus [14]): Active
Time (Mus musculus [15]): 31.6 s
Activity (Mus musculus [16]): 372.7 cm
IC50 [17]: > 10000 nM
Activity (Mus musculus [18]): Active
Activity (Mus musculus [19]): 54.23%
Time (Mus musculus [20]): 11.4 s
efflux ratio [21]: 14.7
IC50 [22]: 21 nM
fold change (FC) (Neuron [23]): 2
Activity (Mus musculus [24]): 50.6%
inhibition [25]: 100%
Activity (Neuron [26]): 47.5%
Time (Mus musculus [27]): 25.72 s
Time (Mus musculus [28]): 21.78 s
IC50 [29]: 2200 nM
inhibition [30]: Active
